Source: PMC8998618, “A Pharmacokinetic and Metabolism Study of the TRPC6 Inhibitor SH045 in Mice by LC-MS/MS” (International Journal of Molecular Sciences, 2022)

How the values were obtained:
[1] = NADPH-dependent microsomal conversion, Michaelis-Menten kinetics (MLM); format: in vitro ADME, mouse; conditions: MLM 0.5 mg/mL protein, SH045 0.5 to 100 µM, Lineweaver-Burk
Experimental: For determination of vmax and Michaelis-Menten constant Km of the NADPH-dependent microsomal depletion of SH045, incubations in MLM and HLM were performed. Testosterone instead of SH045 was used as positive control (Supplementary Materials SM6).
Negative controls were obtained by omission of respective components. The overall velocity (v) of degradation was calculated from altered SH045 concentration (∆c) obtained from reduction peak area ratio of SH045 as: v = ∆c/incubation time × concentration of enzyme (nmol/min × mg). Mean maximum rate vmax and Km were calculated using Lineweaver-Burk transformation. […]
(§1) The tissue binding of SH045 was analyzed exemplarily in lung, liver and kidney homogenate using ultrafiltration [5]. […] 20 µL of the mixture and the filtrate were analyzed for SH045. […]
(§2) Testosterone (10 µM in ACN/DPBS 2/3, v/v) instead of SH045 was used as positive control and analyzed by an appropriate HPLC method with UV detection.
(§3) Negative controls contained either no NADPH, no MLM or HLM or none of them. The overall velocity (v) of degradation was calculated from altered SH045 concentration (∆c) obtained from reduction peak area ratio of SH045 as: v = ∆c / incubation time × concentration of enzyme × volume (nmol/ min × mg). Mean maximum rate vmax and Michaelis-Menten constant Km were calculated using Lineweaver-Burk transformation. […]

[2] = tested on: cytochrome P450 isoenzymes; assay: cytochrome P450 isoenzyme inhibition with isoform-specific inhibitors in liver microsomes; format: in vitro ADME, mouse and human; conditions: MLM and HLM, 2 µM SH045, isoform-specific inhibitors
Experimental: To determine possible metabolizing pathways of SH045 in MLM and HLM, an in vitro inhibition approach was performed with CYP-isoform specific inhibitors. […]
homogenates, and shaken vigorousl y for 5 min. 40 µL urine was mixed with 4 µL of IS and extracted with 156 µL pure […]
All microsome incubations were stopped with 1 mL ice -cold ACN containing 5 µg/mL IS, vortexed for 1 min and cooled at -20 °C for 10 min.
After centrifugation of mixtures from tissue or microsomal incubations for 15 min at 4 °C, the supernatants were filtered through a 0.2 -µm-pore-size syringe filter and stored in the autosampler at 6 °C until analysis by LC-MS/MS as […]
SM5 Tissue binding of SH045
as §1, §2
as §3, with “mg).” for “mg). Mean maximum rate vmax and Michaelis-Menten constant Km were calculated using Lineweaver-Burk transformation.”

[3] = tested on: TRPC3/6 channels of rat pulmonary arterial smooth muscle cells (PASMC); parameters: method as in PMID 29522264; conditions: cited from earlier work

C=C[C@@](C)(O)CC[C@H]1C(=C)C[C@H](OC(=O)NC)[C@H]2C(C)(C)CCC[C@]12C [SH045, (1S,4S,4aR,8aS)-4-((S)-3-Hydroxy-3-methylpent-4-en-1-yl)-4a,8,8-trimethyl-3-methylenedecahydronaphthalen-1-yl methylcarbamate]
vmax [1]: 9.8 ± 0.8 nmol/min/mg | Km at 10 min ([1]; mouse, mouse liver microsomes): 48.4 ± 3.9 µM | cytochrome P450 isoenzymes metabolizing SH045 [2]: substrate of CYP3A4 and CYP2A6 | OAG-induced Ca^2+ entry [3]: inhibition
